Laboratory results as given in patent publication US20250034167A1, “HETEROCYCLIC COMPOUNDS AND METHODS OF USE” (AMGEN INC., priority 2021, published 2025).

Assays:
[1] = system: Phosphorylation of ERK1/2 in AsPC-1 cells; experiment: Phospho-ERK1/2 MSD Assay; type: cell-based; details: Homo sapiens, ASPC1, 2 h, read-out: 2 h p-ERK (AsPC-1 cells), IC50, AsPC-1 cells, 2 h compound treatment
Procedure: Sixteen hours prior to compound treatment, AsPC-1 cells were seeded in 96-well cell culture plates at a density of 25,000 cells/well and incubated at 37° C., 5% CO2. A compound dose-response titration was diluted in growth media, added to appropriate wells of a cell culture plate, and then incubated at 37° C., 5% CO2 for 2 hours.

[2] = target: His-tagged KRAS G12D protein (Homo sapiens, UniProt P01116, G12D); experiment: biochemical
Sequence of His-tagged KRAS G12D protein (P01116 1-188 isoform P01116-2 G12D): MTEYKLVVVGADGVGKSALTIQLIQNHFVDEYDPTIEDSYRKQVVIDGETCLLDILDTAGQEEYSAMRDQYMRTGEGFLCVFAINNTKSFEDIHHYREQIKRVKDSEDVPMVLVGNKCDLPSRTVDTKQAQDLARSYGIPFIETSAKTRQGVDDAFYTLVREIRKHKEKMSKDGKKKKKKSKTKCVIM
Procedure: The plate was incubated for 30 minutes at room temperature. Biotinylated KRPep-2d substrate (Amgen) was diluted to nM in Assay Buffer and 2 μL was added to all wells and incubated for 1 hour at room temperature. Detection Reagent (0.4 nM LANCE Eu-W1024 Anti-6×His (Perkin Elmer AD0401), 5 nM streptavidin-d2 (Cisbio 610SADLA)) was prepared in Assay Buffer, then 4 µL was added to the plate and incubated for 1 hour at room temperature.

| Compound | IC50 [1] [nM] | IC50 [2] [nM] |
| --- | --- | --- |
| CCc1c(F)ccc2cc(O)cc(-c3ncc4c(N5C[C@H](N)CC(F)(F)C5)nc(OC[C@@]56CCCN5C[C@H](F)C6)nc4c3F)c12 [Example 140, 4-(4-((R)-5-Amino-3,3-difluoropiperidin-1-yl)-8-fluoro-2-(((2R,7aS)-2-fluorotetrahydro-1H-pyrrolizin-7a(5H)-yl)methoxy)pyrido[4,3-d]pyrimidin-7-yl)-5-ethyl-6-fluoronaphthalen-2-ol] | 81 | 3 |
| CCc1c(F)ccc2cc(O)cc(-c3ncc4c(N5CCCC[C@@H](NC(C)=O)C5)nc(OC[C@@]56CCCN5C[C@H](F)C6)nc4c3F)c12 [Example 133, N-((R)-1-(7-(8-Ethyl-7-fluoro-3-hydroxynaphthalen-1-yl)-8-fluoro-2-(((2R,7aS)-2-fluorotetrahydro-1H-pyrrolizin-7a(5H)-yl)methoxy)pyrido[4,3-d]pyrimidin-4-yl)azepan-3-yl)acetamide] | 661 | 2 |
| CCc1c(F)ccc2cc(O)cc(-c3ncc4c(N5CCC[C@H](S(N)(=O)=O)C5)nc(OC[C@@]56CCCN5C[C@H](F)C6)nc4c3F)c12 [Example 7, (S)-1-(7-(8-Ethyl-7-fluoro-3-hydroxynaphthalen-1-yl)-8-fluoro-2-(((2R,7aS)-2-fluorotetrahydro-1H-pyrrolizin-7a(5H)-yl)methoxy)pyrido[4,3-d]pyrimidin-4-yl)piperidine-3-sulfonamide] | > 10000 | 37 |
| CCc1c(F)ccc2cc(O)cc(-c3ncc4c(N5CCCC(N)CC5)nc(OC[C@@]56CCCN5C[C@H](F)C6)nc4c3F)c12 (stereo partly drawn) [Example 143, 4-(4-(4-Aminoazepan-1-yl)-8-fluoro-2-(((2R,7aS)-2-fluorotetrahydro-1H-pyrrolizin-7a(5H)-yl)methoxy)pyrido[4,3-d]pyrimidin-7-yl)-5-ethyl-6-fluoronaphthalen-2-ol] | > 10000 | 62 |
| CCc1c(F)ccc2cc(O)cc(-c3ncc4c(N5CC(C(N)=O)C5)nc(OC[C@@]56CCCN5C[C@H](F)C6)nc4c3F)c12 [Example 88, 1-(7-(8-Ethyl-7-fluoro-3-hydroxynaphthalen-1-yl)-8-fluoro-2-(((2R,7aS)-2-fluorotetrahydro-1H-pyrrolizin-7a(5H)-yl)methoxy)pyrido[4,3-d]pyrimidin-4-yl)azetidine-3-carboxamide] | > 10000 | 6 |
| CCc1c(F)ccc2cc(O)cc(-c3ncc4c(N5CCCCC(S(N)(=O)=O)C5)nc(OC[C@@]56CCCN5C[C@H](F)C6)nc4c3F)c12 (stereo partly drawn) [Example 158, 1-(7-(8-Ethyl-7-fluoro-3-hydroxy-naphthalen-1-yl)-8-fluoro-2-(((2R,7aS)-2-fluorotetrahydro-1H-pyrrolizin-7a(5H)-yl)methoxy)pyrido[4,3-d]pyrimidin-4-yl)azepane-3-sulfonamide] | 1420 | 2 |
| CCc1c(F)ccc2cc(O)cc(-c3ncc4c(N5CCCC(C(=O)NC)C5)nc(OC[C@@]56CCCN5C[C@H](F)C6)nc4c3F)c12 (stereo partly drawn) [Example 89, 1-(7-(8-Ethyl-7-fluoro-3-hydroxynaphthalen-1-yl)-8-fluoro-2-(((2R,7aS)-2-fluorotetrahydro-1H-pyrrolizin-7a(5H)-yl)methoxy)pyrido[4,3-d]pyrimidin-4-yl)-N-methylpiperidine-3-carboxamide] | > 3000 | 9 |
| Oc1cc(-c2ncc3c(N4CCCCCC4)nc(OC[C@@]45CCCN4C[C@H](F)C5)nc3c2F)c2c(F)c(F)ccc2c1 [Example 166, 4-(4-(Azepan-1-yl)-8-fluoro-2-(((2R,7aS)-2-fluorotetrahydro-1H-pyrrolizin-7a(5H)-yl)methoxy)pyrido[4,3-d]pyrimidin-7-yl)-5,6-difluoronaphthalen-2-ol] | 94 | 3 |
| CCc1c(F)ccc2cc(O)cc(-c3ncc4c(N5CC[C@H](O)[C@H](O)C5)nc(OC[C@@]56CCCN5C[C@H](F)C6)nc4c3F)c12 (relative stereo) [Example 100, rel-(3R,4S)-1-(7-(8-Ethyl-7-fluoro-3-hydroxynaphthalen-1-yl)-8-fluoro-2-(((2R,7aS)-2-fluorotetrahydro-1H-pyrrolizin-7a(5H)-yl)methoxy)pyrido[4,3-d]pyrimidin-4-yl)piperidine-3,4-diol] | 3700 | 9 |
| CCc1cccc2cc(O)cc(-c3ncc4c(N5CCC[C@@H](O)C5)nc(OC[C@@]56CCCN5C[C@H](F)C6)nc4c3F)c12 [Example 13, (R)-1-(7-(8-Ethyl-3-hydroxynaphthalen-1-yl)-8-fluoro-2-(((2R,7aS)-2-fluorotetrahydro-1H-pyrrolizin-7a(5H)-yl)methoxy)pyrido[4,3-d]pyrimidin-4-yl)piperidin-3-ol] | 107 | 2 |
| CCc1c(F)ccc2cc(O)cc(-c3ncc4c(N5CCC(O)C(F)(F)CC5)nc(OC[C@@]56CCCN5C[C@H](F)C6)nc4c3F)c12 (stereo partly drawn) [Example 120, 1-(7-(8-Ethyl-7-fluoro-3-hydroxynaphthalen-1-yl)-8-fluoro-2-(((2R,7aS)-2-fluorotetrahydro-1H-pyrrolizin-7a(5H)-yl)methoxy)pyrido[4,3-d]pyrimidin-4-yl)-5,5-difluoroazepan-4-ol] | 222 | 4 |
| CCc1c(F)ccc2cc(O)cc(-c3ncc4c(N5CCCC(O)CC5)nc(OC[C@@]56CCCN5C[C@H](F)C6)nc4c3F)c12 (stereo partly drawn) [Example 141, 1-(7-(8-Ethyl-7-fluoro-3-hydroxynaphthalen-1-yl)-8-fluoro-2-(((2R,7aS)-2-fluorotetrahydro-1H-pyrrolizin-7a(5H)-yl)methoxy)pyrido[4,3-d]pyrimidin-4-yl)azepan-4-ol] | 198 | 4 |
| CCc1c(F)ccc2cc(O)cc(-c3ncc4c(N5CCC=CCC5)nc(OC[C@@]56CCCN5C[C@H](F)C6)nc4c3F)c12 [Example 139, 5-Ethyl-6-fluoro-4-(8-fluoro-2-(((2R,7aS)-2-fluorotetrahydro-1H-pyrrolizin-7a(5H)-yl)methoxy)-4-(2,3,6,7-tetrahydro-1H-azepin-1-yl)pyrido[4,3-d]pyrimidin-7-yl)naphthalen-2-ol] | 116 | 5 |
| CCc1c(F)ccc2cc(O)cc(-c3ncc4c(N5CCC(=O)C(F)(F)C5)nc(OC[C@@]56CCCN5C[C@H](F)C6)nc4c3F)c12 [Example 152, 1-(7-(8-Ethyl-7-fluoro-3-hydroxy-naphthalen-1-yl)-8-fluoro-2-(((2R,7aS)-2-fluorotetrahydro-1H-pyrrolizin-7a(5H)-yl)methoxy)pyrido[4,3-d]pyrimidin-4-yl)-3,3-difluoropiperidin-4-one] | 2670 | 4 |
| CCc1c(F)ccc2cc(O)cc(-c3ncc4c(N5C[C@H](C)C[C@@H](O)C5)nc(OC[C@@]56CCCN5C[C@H](F)C6)nc4c3F)c12 (relative stereo) [Example 160, rel-(3R,5R)-1-(7-(8-Ethyl-7-fluoro-3-hydroxy-naphthalen-1-yl)-8-fluoro-2-(((2R,7aS)-2-fluorotetrahydro-1H-pyrrolizin-7a(5H)-yl)methoxy)pyrido[4,3-d]pyrimidin-4-yl)-5-methylpiperidin-3-ol] | 414 | 3 |
| C[C@@]1(O)CCCN(c2nc(OC[C@@]34CCCN3C[C@H](F)C4)nc3c(F)c(-c4cc(O)cc5ccccc45)ncc23)C1 [Example 60, (R)-1-(8-Fluoro-2-(((2R,7aS)-2-fluorotetrahydro-1H-pyrrolizin-7a(5H)-yl)methoxy)-7-(3-hydroxynaphthalen-1-yl)pyrido[4,3-d]pyrimidin-4-yl)-3-methylpiperidin-3-ol] | 330 | 2 |
| Oc1cc(-c2ncc3c(N4CCC[C@@H](O)C4)nc(OC[C@@]45CCCN4C[C@H](F)C5)nc3c2F)c2c(F)c(F)ccc2c1 [Example 12, (R)-1-(7-(7,8-Difluoro-3-hydroxynaphthalen-1-yl)-8-fluoro-2-(((2R,7aS)-2-fluorotetrahydro-1H-pyrrolizin-7a(5H)-yl)methoxy)pyrido[4,3-d]pyrimidin-4-yl)piperidin-3-ol] | 377 | 2 |
| CCc1c(F)ccc2cc(O)cc(-c3ncc4c(N5CCCC(F)(F)CC5)nc(OC[C@@]56CCCN5C[C@H](F)C6)nc4c3F)c12 [Example 149, 4-(4-(4,4-Difluoroazepan-1-yl)-8-fluoro-2-(((2R,7aS)-2-fluorotetrahydro-1H-pyrrolizin-7a(5H)-yl)methoxy)pyrido[4,3-d]pyrimidin-7-yl)-5-ethyl-6-fluoronaphthalen-2-ol] | 702 | 12 |
| CCc1c(F)ccc2cc(O)cc(-c3ncc4c(N5CC6CCC(C5)C(C#N)C6)nc(OC[C@@]56CCCN5C[C@H](F)C6)nc4c3F)c12 (stereo partly drawn) [Example 147, 3-(7-(8-Ethyl-7-fluoro-3-hydroxynaphthalen-1-yl)-8-fluoro-2-(((2R,7aS)-2-fluorotetrahydro-1H-pyrrolizin-7a(5H)-yl)methoxy)pyrido[4,3-d]pyrimidin-4-yl)-3-azabicyclo[3.2.2]nonane-6-carbonitrile] | 714 | 15 |
| CCc1c(F)ccc2cc(O)cc(-c3ncc4c(N5CC6CCC(C6)C5)nc(OC[C@@]56CCCN5C[C@H](F)C6)nc4c3F)c12 [Example 105, 4-(4-(3-Azabicyclo[3.2.1]octan-3-yl)-8-fluoro-2-(((2R,7aS)-2-fluorotetrahydro-1H-pyrrolizin-7a(5H)-yl)methoxy)pyrido[4,3-d]pyrimidin-7-yl)-5-ethyl-6-fluoronaphthalen-2-ol] | 939 | 9 |
| C#Cc1cccc2cc(O)cc(-c3ncc4c(N5CC6CC(O)C(C6)C5)nc(OC[C@@]56CCCN5C[C@H](F)C6)nc4c3F)c12 (single isomer, unassigned) [Example 31] | 32 | 2 |
